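All cell lines were grown in 96-well plates and treated with compound for 48 hours. TGI denotes the concentration required for complete inhibition of growth.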
What was measured:
Assay in all cases: inhibition of tumour cell growth, NCI panel, 48 h
SN12C renal = system: SN12C renal
HCT-116 colon = system: HCT-116 colon
KM20L2 colon = system: KM20L2 colon
SK-OV-3 ovarian = system: SK-OV-3 ovarian
DLD-1 colon = system: DLD-1 colon
UACC-62 melanoma = system: UACC-62 melanoma
OVCAR-8 ovarian = system: OVCAR-8 ovarian
DMS 273 small cell lung = system: DMS 273 small cell lung
K-562 leukemia = system: K-562 leukemia
NCI-H23 lung = system: NCI-H23 lung
OVCAR-4 ovarian = system: OVCAR-4 ovarian
HL-60(TB) leukemia = system: HL-60(TB) leukemia
DMS 114 small cell lung = system: DMS 114 small cell lung
SW-620 colon = system: SW-620 colon
786-0 renal = system: 786-0 renal
EKVX NSCLC = system: EKVX NSCLC
SNB-75 CNS = system: SNB-75 CNS
UACC-257 melanoma = system: UACC-257 melanoma
NCI-H460 lung = system: NCI-H460 lung
HCC-2998 colon = system: HCC-2998 colon
A549 NSCLC = system: A549 NSCLC
TK-10 renal = system: TK-10 renal
U251 CNS = system: U251 CNS
SK-MEL-2 melanoma = system: SK-MEL-2 melanoma
UO-31 renal = system: UO-31 renal
HCT-15 colon = system: HCT-15 colon
MALME-3M melanoma = system: MALME-3M melanoma
LXFL 529 NSCLC = system: LXFL 529 NSCLC
SF-539 CNS = system: SF-539 CNS
OVCAR-3 ovarian = system: OVCAR-3 ovarian
RXF 393 renal = system: RXF 393 renal
HOP-62 NSCLC = system: HOP-62 NSCLC
SNB-78 CNS = system: SNB-78 CNS
CCRF-CEM leukemia = system: CCRF-CEM leukemia
M14 melanoma = system: M14 melanoma
A498 renal = system: A498 renal
HOP-18 NSCLC = system: HOP-18 NSCLC
SF-268 CNS = system: SF-268 CNS
NCI-H226 lung = system: NCI-H226 lung
SK-MEL-28 melanoma = system: SK-MEL-28 melanoma
HT29 colon = system: HT29 colon
RPMI-8226 leukemia = system: RPMI-8226 leukemia
ACHN renal = system: ACHN renal
HOP-92 NSCLC = system: HOP-92 NSCLC
LOX IMVI melanoma = system: LOX IMVI melanoma
COLO 205 colon = system: COLO 205 colon
SNB-19 CNS = system: SNB-19 CNS
XF 498 CNS = system: XF 498 CNS
KM12 colon = system: KM12 colon
NCI-H522 lung = system: NCI-H522 lung
MOLT-4 leukemia = system: MOLT-4 leukemia
M19-MEL melanoma = system: M19-MEL melanoma
IGROV1 ovarian = system: IGROV1 ovarian
SF-295 CNS = system: SF-295 CNS
SR leukemia = system: SR leukemia
SK-MEL-5 melanoma = system: SK-MEL-5 melanoma
CAKI-1 renal = system: CAKI-1 renal

C=C1CC[C@@H]2C(C)(C)C(O)CCC2(C)C1COc1ccc2ccc(=O)oc2c1 (stereo partly drawn)
TGI (SN12C renal): 30 µM | TGI (HCT-116 colon): 28.8 µM | TGI (KM20L2 colon): 40.5 µM | TGI (SK-OV-3 ovarian): 55.2 µM | TGI (DLD-1 colon): 34.4 µM | TGI (UACC-62 melanoma): 29.4 µM | TGI (OVCAR-8 ovarian): 33.5 µM | TGI (DMS 273 small cell lung): 27.3 µM | TGI (K-562 leukemia): 44.1 µM | TGI (NCI-H23 lung): 34.6 µM | TGI (OVCAR-4 ovarian): 29.7 µM | TGI (HL-60(TB) leukemia): 36.3 µM | TGI (DMS 114 small cell lung): 28.2 µM | TGI (SW-620 colon): 42.4 µM | TGI (786-0 renal): 42.2 µM | TGI (EKVX NSCLC): 37.4 µM | TGI (SNB-75 CNS): 32.2 µM | TGI (UACC-257 melanoma): 32.6 µM | TGI (NCI-H460 lung): 23.5 µM | TGI (HCC-2998 colon): 34.8 µM | TGI (A549 NSCLC): 32.6 µM | TGI (TK-10 renal): 36.9 µM | TGI (U251 CNS): 34.3 µM | TGI (SK-MEL-2 melanoma): 32 µM | TGI (UO-31 renal): 29.4 µM | TGI (HCT-15 colon): 28.3 µM | TGI (MALME-3M melanoma): 32.1 µM | TGI (LXFL 529 NSCLC): 23.7 µM | TGI (SF-539 CNS): 31.3 µM | TGI (OVCAR-3 ovarian): 32.6 µM | TGI (RXF 393 renal): 35.5 µM | TGI (HOP-62 NSCLC): 33.4 µM | TGI (SNB-78 CNS): 39.2 µM | TGI (CCRF-CEM leukemia): 49 µM | TGI (M14 melanoma): 33.2 µM | TGI (A498 renal): 56.8 µM | TGI (HOP-18 NSCLC): 35 µM | TGI (SF-268 CNS): 36.7 µM | TGI (NCI-H226 lung): 33.3 µM | TGI (SK-MEL-28 melanoma): 32.2 µM | TGI (HT29 colon): 37.3 µM | TGI (RPMI-8226 leukemia): 33.8 µM | TGI (ACHN renal): 30.5 µM | TGI (HOP-92 NSCLC): 35.4 µM | TGI (LOX IMVI melanoma): 32 µM | TGI (COLO 205 colon): 28.1 µM | TGI (SNB-19 CNS): 37.4 µM | TGI (XF 498 CNS): 29.6 µM | TGI (KM12 colon): 29.8 µM | TGI (NCI-H522 lung): 29.8 µM | TGI (MOLT-4 leukemia): 39.8 µM | TGI (M19-MEL melanoma): 32.5 µM | TGI (IGROV1 ovarian): 33.5 µM | TGI (SF-295 CNS): 29.7 µM | TGI (SR leukemia): 56.9 µM

Cc1c(C(=N)N)oc2ccccc12
TGI (SN12C renal): > 100 µM | TGI (HCT-116 colon): > 100 µM | TGI (KM20L2 colon): > 100 µM | TGI (SK-OV-3 ovarian): > 100 µM | TGI (DLD-1 colon): > 100 µM | TGI (UACC-62 melanoma): > 100 µM | TGI (OVCAR-8 ovarian): > 100 µM | TGI (K-562 leukemia): > 100 µM | TGI (NCI-H23 lung): > 100 µM | TGI (SK-MEL-5 melanoma): > 100 µM | TGI (OVCAR-4 ovarian): > 100 µM | TGI (HL-60(TB) leukemia): > 100 µM | TGI (DMS 114 small cell lung): > 100 µM | TGI (SW-620 colon): > 100 µM | TGI (786-0 renal): > 100 µM | TGI (EKVX NSCLC): > 100 µM | TGI (SNB-75 CNS): > 100 µM | TGI (UACC-257 melanoma): > 100 µM | TGI (NCI-H460 lung): > 100 µM | TGI (HCC-2998 colon): > 100 µM | TGI (A549 NSCLC): > 100 µM | TGI (TK-10 renal): > 100 µM | TGI (U251 CNS): > 100 µM | TGI (UO-31 renal): > 100 µM | TGI (MALME-3M melanoma): > 100 µM | TGI (LXFL 529 NSCLC): > 100 µM | TGI (SF-539 CNS): > 100 µM | TGI (OVCAR-3 ovarian): > 100 µM | TGI (RXF 393 renal): > 100 µM | TGI (HOP-62 NSCLC): > 100 µM | TGI (SNB-78 CNS): > 100 µM | TGI (CCRF-CEM leukemia): > 100 µM | TGI (M14 melanoma): > 100 µM | TGI (A498 renal): > 100 µM | TGI (HOP-18 NSCLC): > 100 µM | TGI (SF-268 CNS): > 100 µM | TGI (NCI-H226 lung): > 100 µM | TGI (SK-MEL-28 melanoma): > 100 µM | TGI (HT29 colon): > 100 µM | TGI (ACHN renal): > 100 µM | TGI (HOP-92 NSCLC): > 100 µM | TGI (LOX IMVI melanoma): > 100 µM | TGI (COLO 205 colon): > 100 µM | TGI (SNB-19 CNS): > 100 µM | TGI (XF 498 CNS): > 100 µM | TGI (CAKI-1 renal): > 100 µM | TGI (KM12 colon): > 100 µM | TGI (NCI-H522 lung): > 100 µM | TGI (MOLT-4 leukemia): > 100 µM | TGI (M19-MEL melanoma): > 100 µM | TGI (IGROV1 ovarian): > 100 µM | TGI (SF-295 CNS): > 100 µM | TGI (SR leukemia): > 100 µM

COc1nc(NC2OCC(O)C(O)C2O)c(NC2OCC(O)C(O)C2O)c(=O)n1C (stereo not drawn)
TGI (SN12C renal): > 100 µM | TGI (HCT-116 colon): > 100 µM | TGI (KM20L2 colon): > 100 µM | TGI (SK-OV-3 ovarian): > 100 µM | TGI (DLD-1 colon): > 100 µM | TGI (UACC-62 melanoma): > 100 µM | TGI (OVCAR-8 ovarian): > 100 µM | TGI (DMS 273 small cell lung): > 100 µM | TGI (K-562 leukemia): > 100 µM | TGI (NCI-H23 lung): > 100 µM | TGI (OVCAR-4 ovarian): > 100 µM | TGI (HL-60(TB) leukemia): > 100 µM | TGI (DMS 114 small cell lung): > 100 µM | TGI (SW-620 colon): > 100 µM | TGI (786-0 renal): > 100 µM | TGI (EKVX NSCLC): > 100 µM | TGI (SNB-75 CNS): > 100 µM | TGI (UACC-257 melanoma): > 100 µM | TGI (NCI-H460 lung): > 100 µM | TGI (HCC-2998 colon): > 100 µM | TGI (A549 NSCLC): > 100 µM | TGI (TK-10 renal): > 100 µM | TGI (U251 CNS): > 100 µM | TGI (SK-MEL-2 melanoma): > 100 µM | TGI (UO-31 renal): > 100 µM | TGI (HCT-15 colon): > 100 µM | TGI (MALME-3M melanoma): > 100 µM | TGI (LXFL 529 NSCLC): > 100 µM | TGI (SF-539 CNS): > 100 µM | TGI (OVCAR-3 ovarian): > 100 µM | TGI (RXF 393 renal): > 100 µM | TGI (HOP-62 NSCLC): > 100 µM | TGI (SNB-78 CNS): > 100 µM | TGI (CCRF-CEM leukemia): > 100 µM | TGI (M14 melanoma): > 100 µM | TGI (A498 renal): > 100 µM | TGI (HOP-18 NSCLC): > 100 µM | TGI (SF-268 CNS): > 100 µM | TGI (NCI-H226 lung): > 100 µM | TGI (SK-MEL-28 melanoma): > 100 µM | TGI (HT29 colon): > 100 µM | TGI (RPMI-8226 leukemia): > 100 µM | TGI (ACHN renal): > 100 µM | TGI (HOP-92 NSCLC): > 100 µM | TGI (LOX IMVI melanoma): > 100 µM | TGI (COLO 205 colon): > 100 µM | TGI (SNB-19 CNS): > 100 µM | TGI (XF 498 CNS): > 100 µM | TGI (KM12 colon): > 100 µM | TGI (NCI-H522 lung): > 100 µM | TGI (MOLT-4 leukemia): > 100 µM | TGI (M19-MEL melanoma): > 100 µM | TGI (IGROV1 ovarian): > 100 µM | TGI (SF-295 CNS): > 100 µM | TGI (SR leukemia): > 100 µM

From PubChem BioAssay (NCI)
